From patent US9387199B2, “Compositions and methods for treating clostridium infection and preventing recurrence of infection” (priority 2013, dated 2016)

Columns and labels:
[1] = tested on: C. difficile VPI 10463; test: Murine model of C. difficile infection and treatment (clinical score, survival, relapse), Example 1; conditions: for deaths prevented during the acute infection period: untreated infected survival 38%
[2] = tested on: C. difficile; conditions: with drug use; cited from earlier work
[3] = tested on: C. difficile VPI 10463; test: Histopathology scoring of cecal and colonic tissues in the murine CDI model; type: in vivo, C57BL/6 mice
[4] = tested on: IgG; set-up: species or system mice; conditions: mouse, in vivo
[5] = tested on: C. difficile VPI 10463; test: Cecal clostridial (tcdB qPCR) and toxin (TcdA/TcdB ELISA) burden in the murine CDI model; type: in vivo, C57BL/6 mice
Protocol: Food and water were allowed ad libitum. […] Stool specimens were collected daily.
Genomic DNA was extracted from the stool or cecal samples using a modified protocol for the QIAamp DNA stool minikits (Qiagen). Stool lysis buffer (400 μl) was added to a frozen stool sample-diluent (from enzyme-linked immunosorbent assay [ELISA]) mixture. Samples were then vortexed for 15 s and incubated at 82.5° C. for 5 min. The samples were vortexed for another 15 s and then centrifuged at 14,000 rpm for 2 min. The supernatant was added to a clean 1.5-ml microcentrifuge tube. Thirty microliters of proteinase K was added to the wall of each tube, followed by 400 μl of lysis buffer. Samples were vortexed for 15 s and then incubated at 70° C. for 10 min. After incubation, 400 μl of 100% ethanol was added to each sample and then mixed by vortexing. A total of 650 μl of the sample was then added to a spin column provided in the kit and centrifuged at 14,000 rpm for 1 min. The remaining volume of each sample was then added to the spin column and centrifuged under the same conditions. The samples were washed first with 500 μl of AW1 buffer and centrifuged at 14,000 rpm for 1 min and then with 500 μl of AW2 buffer and centrifuged at 14,000 rpm for 3 min. The DNA was eluted by adding 200 μl of elution buffer to the spin column and then centrifuging at 14,000 rpm for 1 min.

[6] = tested on: C. difficile NAP1/BI/027; conditions: infections due to NAP1/BI/027, treated subjects; cited from earlier work
[7] = uninfected mice, 5-day course of drug alone
[8] = 20 mg/kg oral gavage daily for 5 days
[9] = first week after infection, 20 mg/kg oral gavage daily for 5 days, infected controls 5.7±0.9
[10] = second week postinoculation, infected control 2.7±0.9, uninfected 1.6±0.26

## Cc1ncc([N+](=O)[O-])n1CCO [metronidazole]
[1]; 20 mg/kg/day for 5 days
  infected mice that relapsed: none
[1]; 20 mg/kg/day for 5 days, infected mice
  weight loss or diarrhea while on antibiotics: had diarrhea and weight loss during treatment
[1]; 20 mg/kg/day for 5 days, 6 mice per group
  mice that died of infection during treatment: one mouse
[2]
  recurrence rate: ≤ 50%

## CC(=O)Oc1ccccc1C(=O)Nc1ncc([N+](=O)[O-])s1 [nitazoxanide]
[1]; [8]
  deaths prevented during the acute infection period: 60%
[1]; [9]
  mean clinical score: 5±1
[1]; second week postinfection, 20 mg/kg daily for 5 days
  additional deaths in post-acute infection period: no additional deaths were noted
[3]; first week postinoculation, 20 mg/kg daily, untreated infected 12.5±0.7, max score 15
  histopathology score: 11.53±0.9
[3]; [10]
  histopathology score: 4.2±0.6

## CNC(CC(C)C)C(=O)NC1C(=O)NC(CC(N)=O)C(=O)NC2C(=O)NC3C(=O)NC(C(=O)NC(C(=O)O)c4cc(O)cc(O)c4-c4cc3ccc4O)C(O)c3ccc(c(Cl)c3)Oc3cc2cc(c3OC2OC(CO)C(O)C(O)C2OC2CC(C)(N)C(O)C(C)O2)Oc2ccc(cc2Cl)C1O (stereo not drawn) [vancomycin]
[4]
  IgG levels, low dose versus high dose: higher IgG levels
[5]; day 3 (peak of infection)
  C. difficile DNA (tcdB) and toxin levels in cecal specimens: low
[5]; day 6 (1 day after antibiotic was discontinued), persisted on days 9 and 12
  clostridial burden in cecal specimens: increased clostridial burden
[6]
  rate of recurrence: 23.6%
[1]; [8]
  deaths prevented during the acute infection period: 100%
[1]; 20 mg/kg/day for 5 or 10 days, both treatment groups
  clinical score until recurrence of disease: < 1
[1]; 20 mg/kg/day for 5 days
  infected mice that relapsed: 67%
[1]; 20 mg/kg/day for 10 days
  mortality rate, 10-day versus 5-day course: higher mortality rate
[1]; 20 mg/kg/day, 5-day treatment course
  time from end of treatment to relapse: 4 days
[1]; 20 mg/kg/day, 10-day treatment course
  time from discontinuation to relapse: 3 days
[1]; 50 mg for 1 day only, versus 2, 3, 5 days
  weight loss and clinical outcomes by duration of treatment: least weight loss and best clinical outcomes
[1]; 50 mg given for 5 days, infected controls 75%
  overall mortality rate: 100%
[1]; by day 9 and onwards, after 5-day treatment at 20 mg/kg
  deaths: 62%
[1]; [9]
  mean clinical score: 1.7±0.3
[1]; second week postinfection, 20 mg/kg daily for 5 days, surviving untreated infected mice 2.6
  mean clinical score: 6.2±0.2
[3]; at the peak of infection (day 3), uninfected control 2.2±1
  histopathology score: 4.5±1.6
[3]; [10]
  histopathology score: 9.3±0.9
[7]
  weight loss or increase in disease score: did not show weight loss or an increase in disease score
